In EP0412158A1, “ONCOSTATIC DRUG” (priority 1987, dated 1988):
Where “and” joins values, the source holds several entries; their conditions need not be identical. Equal entries are not always repeated. Where two headings read alike, the source gives them in different places. Marks after values point to notes of the source that are not given here.

Assays:
human lung cancer (OAT) [1] = assay type: in vivo, female nude mice; settings: 200 mg/kg ip ×10; for T/C: tumor volume
Protocol: A patch of human lung cancer [Cancer cells recommended by National Cancer Institute (NCL) of the U.S.A.] (OAT) measuring approximately 2 x 2 mm in area was subcutaneously transplanted to each of female nude mice. An aqueous solution containing the aforementioned heteropoly acid salt (Compound M) in a concentration of 10 mg/ml was administered by intraperitoneal injection (ip) to the mice at a dose of 200 mg/kg once per day for 10 consecutive days following the 12th day of transplantation. For 15 days following the stop of the administration, the volumes of tumor in the mice were measured to evaluate the effect of compound. At ip (x 10), significant suppression of hyperplasia began to appear about the 4th day. Even after completion of the administration 25th day of the transplantation, strong suppression of hyperplasia of cancer of about 50% was maintained. Generally by the NCI standard, a ratio of suppression exceeding 50% is rated as effective. Thus, the compound was confirmed to be effective. For comparison, mice to which no aqueous solution was administered were similarly tested.

MM-46 breast cancer = assay type: in vivo, female C3H/He mice
Protocol: The aforementioned active compound M was dissolved in distilled water to obtain an aqueous solution containing the compound in a concentration of 10 mg/ml. To female C3H/He mice (five weeks old) to which MM-46 breast cancer was transplanted in a ratio of 1.0 x 10^5 cells per mouse, the aqueous solution was administered intraperitoneally (ip) or orally (po) at a dose of 100 mg and a dose of 200 mg per kg of body weight for 9 consecutive days to measure the periods of the mices survival. For comparison, mice to which no aqueous solution was administered was similarly tested.

human lung cancer (OAT) [2] = assay type: in vivo, female ICR/cd-1 mice; settings: Example 39: 100 mg/kg (so in the source), IP 1~6
[3] = system: methyl cholanthrene A tumor; assay: Antineoplastic activity against transplanted methyl cholanthrene A tumor, evaluation by size of tumor (Examples 1 to 6); assay type: in vivo, female BALB/C mice; settings: for Average weight of tumor / Number of tumorless mice /total number of mice / Change in body weight / T/control: ip×9; for Change in body weight: body weight 13 days after transplantation; for T/control: tumor weight
Protocol: By dissolving alkylammonium salt of polymolybdic acid [NH3C3H7(iso)]s [Mo7O24] • 3H2O (Compound A) and other compounds (Compounds B to D) severally in distilled water, aqueous solutions containing the compounds in a fixed concentration of 10 mg/ml were obtained. These aqueous solutions were administered to female BALB/C mice (five weeks old) to which methyl cholanthrene A tumor had been transplanted to test the compounds for antineoplastic activity. To be specific, methyl cholanthrene A was transplanted to the mice in a ratio of 1.0 x 10^5 cells per mouse and the aqueous solutions were continuously administered to the mice by intraperitoneal injection ([…]) for nine days. On elapse of 14 days following the start of the administration, the tumors in the mice were measured. For comparison, mice to which no antineoplastic .drug was administered and mice to which aminonitroso urea was administered were tested by following the procedure described above.

In the case of Nas [IMo6O24] • 34H2O [Compound M], the “suppression of hyperplasia of cancer” value (human lung cancer (OAT) [1]; after completion of the administration, 25th day) is reported as “about 50%”, the “Volume of tumor, Average value±SE” value (human lung cancer (OAT) [1]; day 1) is reported as 457.6±59.3 mm3 and the “Volume of tumor, Average value±SE” value (human lung cancer (OAT) [1]; day 2) is reported as 501.7±32.9 mm3. The T/C (human lung cancer (OAT) [1]; day 2) was 65.2* %, the “Volume of tumor, Average value±SE” value (human lung cancer (OAT) [1]; day 3) was 617.0±165.7 mm3 and the T/C (human lung cancer (OAT) [1]; day 3) was 58.3%. The “Volume of tumor, Average value±SE” value (human lung cancer (OAT) [1]; day 4) was 610.0±118.1 mm3, the T/C (human lung cancer (OAT) [1]; day 4) was 40.9** % and the “Volume of tumor, Average value±SE” value (human lung cancer (OAT) [1]; day 5) was 711.2±109.2 mm3. The T/C (human lung cancer (OAT) [1]; day 5) was 40.8** %, the “Volume of tumor, Average value±SE” value (human lung cancer (OAT) [1]; day 6) was 1003.6±188.6 mm3 and the T/C (human lung cancer (OAT) [1]; day 6) was 39.9** %. For the same substance, the “Volume of tumor, Average value±SE” value (human lung cancer (OAT) [1]; day 7) was 1033.6±121.5 mm3, the T/C (human lung cancer (OAT) [1]; day 7) was 26.0** % and the “Volume of tumor, Average value±SE” value (human lung cancer (OAT) [1]; day 8) was 1257.8±166.2 mm3. For the same substance, the T/C (human lung cancer (OAT) [1]; day 8) was 27.7** %, the “Volume of tumor, Average value±SE” value (human lung cancer (OAT) [1]; day 12) was 2366.6±364.0 mm3 and the T/C (human lung cancer (OAT) [1]; day 12) was 41.6** %. For the same substance, the “Volume of tumor, Average value±SE” value (human lung cancer (OAT) [1]; day 15) was 4493.2±562.2 mm3, the T/C (human lung cancer (OAT) [1]; day 15) was 48.0** % and the “Volume of tumor, Average value±SE” value (human lung cancer (OAT) [1]; day 19) was 5735.0±1038.1 mm3. The T/C (human lung cancer (OAT) [1]; day 19) was 43.3** %, the “Volume of tumor, Average value±SE” value (human lung cancer (OAT) [1]; day 22) was 8493.2±1352.2 mm3 and the T/C (human lung cancer (OAT) [1]; day 22) was 54.8** %. For the same substance, the “Volume of tumor, Average value±SE” value (human lung cancer (OAT) [1]; day 25) was 9672.6±1638.0 mm3, the T/C (human lung cancer (OAT) [1]; day 25) was 53.2** % and the “% ILS” value (MM-46 breast cancer; 100 mg/kg/day ip×9) was 100.9%. For the same substance, the “(column without head: number of mice/total number of mice)” value (MM-46 breast cancer; 100 mg/kg/day ip×9) was 1/7, the “Average days of survival ±SE” value (MM-46 breast cancer; 100 mg/kg/day ip×9) was 55.1±8.7(7) days and the “% ILS” value (MM-46 breast cancer; 200 mg/kg/day po×9) was 59.7%. For the same substance, the “(column without head: number of mice/total number of mice)” value (MM-46 breast cancer; 200 mg/kg/day po×9) was 0/6, the “Average days of survival ±SE” value (MM-46 breast cancer; 200 mg/kg/day po×9) was 43.8±3.9(6) days and the T/C (human lung cancer (OAT) [2]) was 60.0%. The “Tumorous activity T7/T0” value (human lung cancer (OAT) [2]; group mean) was 1.56±0.24, the “Tumorous activity T7/T0” value (human lung cancer (OAT) [2]; individual mice, 100 mg/kg) was 1.25 and 1.40 and 2.05 and the “Tumorous activity T7” value (human lung cancer (OAT) [2]; size of tumor on 7th day, individual mice, 100 mg/kg) was 12.5 omu and 14.0 omu and 20.5 omu.
With “[NH3C3H7(iso)]s (Mo7O24] • 3H2O [Compound A]” the toxicity ([3]; 200 mg/kg.ip for nine days, judged by increase of body weight, result in words) was “very low toxicity”, the “Average weight of tumor” value ([3]; No. 1, 100 mg/kg) was 451.0 ± 84.7 mg and the “Number of tumorless mice /total number of mice” value ([3]; No. 1, 100 mg/kg) was 1/8. The “Change in body weight” value ([3]; No. 1, 100 mg/kg) was “+2.50 (D1~D9) g”, the T/control ([3]; No. 1, 100 mg/kg) was 0.169 and the “Average weight of tumor” value ([3]; No. 2, 50 mg/kg) was 1182.1±246.8(10) mg. For the same substance, the “Number of tumorless mice /total number of mice” value ([3]; No. 2, 50 mg/kg) was 0/10, the “Change in body weight” value ([3]; No. 2, 50 mg/kg) was “+1.81 g” and the T/control ([3]; No. 2, 50 mg/kg) was 0.414. The “Average weight of tumor” value ([3]; No. 2, 100 mg/kg) was 563.9±99.1(9) mg, the “Number of tumorless mice /total number of mice” value ([3]; No. 2, 100 mg/kg) was 0/10 and the “Change in body weight” value ([3]; No. 2, 100 mg/kg) was “+1.97 g”. For the same substance, the T/control ([3]; No. 2, 100 mg/kg) was 0.198, the “Average weight of tumor” value ([3]; No. 2, 200 mg/kg) was 1211.8±227.6(8) mg and the “Number of tumorless mice /total number of mice” value ([3]; No. 2, 200 mg/kg) was 0/8. For the same substance, the “Change in body weight” value ([3]; No. 2, 200 mg/kg) was “+1.81 g”, the T/control ([3]; No. 2, 200 mg/kg) was 0.424 and the “Average weight of tumor” value ([3]; No. 3, 50 mg/kg) was 1606.0±163.5(8) mg. The “Number of tumorless mice /total number of mice” value ([3]; No. 3, 50 mg/kg) was 0/8, the “Change in body weight” value ([3]; No. 3, 50 mg/kg) was “+1.68 g” and the T/control ([3]; No. 3, 50 mg/kg) was 0.624.
